The test system of data set [1] is rodent models of seizure, anxiety, depression and EEG biomarker. Nature of the data set: Preclinical models of depression, anxiety, seizure and EEG (overall effective dose). The data set is classed as in vivo.
Data set [2] concerns rats. Description: Sleep states by electroencephalogram (EEG) in rats. It is filed as in vivo, rat. How it is done: The effect of CV-10155 on various sleep states was analyzed in rats. Rats were given various doses of CV-10155, and sleep states were analyzed by electroencephalogram (EEG).
Data set [3] deals with T1, CYP2C8 (Homo sapiens, UniProt P10632).
T1 construct: from tissue; host or cells: human volunteers in vivo (endogenous, mainly hepatic, enzyme: own knowledge)
T1 sequence (P10632 1-490): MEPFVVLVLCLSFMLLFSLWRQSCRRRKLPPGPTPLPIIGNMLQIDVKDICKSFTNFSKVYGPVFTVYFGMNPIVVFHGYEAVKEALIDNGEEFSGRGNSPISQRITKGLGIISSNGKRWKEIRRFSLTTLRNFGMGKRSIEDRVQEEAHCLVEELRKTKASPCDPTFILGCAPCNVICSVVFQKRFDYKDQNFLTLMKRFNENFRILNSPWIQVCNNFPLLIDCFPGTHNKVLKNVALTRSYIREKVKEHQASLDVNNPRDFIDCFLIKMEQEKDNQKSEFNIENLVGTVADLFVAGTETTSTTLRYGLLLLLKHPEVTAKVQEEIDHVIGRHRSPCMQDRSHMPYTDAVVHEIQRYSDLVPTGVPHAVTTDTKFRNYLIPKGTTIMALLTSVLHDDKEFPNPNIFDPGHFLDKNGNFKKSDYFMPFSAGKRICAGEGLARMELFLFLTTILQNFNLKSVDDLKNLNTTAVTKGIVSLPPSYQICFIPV
Nature of the data set: Repaglinide drug-drug interaction in humans. It is filed as in vivo. The following applies: repaglinide exposure after 14 day repeat doses.

Data set [4] deals with rats. Nature of the data set: Repeat-dose toxicity up to four weeks, rats. It is filed as in vivo, rat. How it is done:
The no-observed-adverse-effect-level doses were 7.5/mg/kg/day and 6 mg/kg/day in rats and dogs, respectively.
Justification for Dose—Based on the nonclinical toxicology data, there is not an unreasonable risk of adverse effects. Using the FDA guidance “Estimating the Maximum Safe Starting Dose in Initial Clinical Trials for Therapeutics in Adult Healthy Volunteers” (July, 2005), the calculated human equivalent dose would be 1/2 mg/kg/day or 3/24 mg/kg/day, respectively, based on the 28-day rat no-observed-adverse-effect-level dose of 7.5 mg/kg/day or the 28-day dog no-observed-adverse-effect-level dose of 6 mg/kg/day, respectively. For both species the no-observed-adverse-effect-level dose was the highest dose tested. For a 60 kg participant, this would result in a maximum safe starting dose of (human equivalent dose/10) of 7.2 mg/day or 19/6 mg/day. The starting doses in this Phase 1 study are 5 mg, equivalent to […] for a 60 kg participant. […] These anticipated Cmax and AUC values are ˜80- and 50-fold lower, respectively, than that observed at the no-observed-adverse-effect-level dose in dogs.

For data set [5], the target named is kappa opioid receptor (Homo sapiens, UniProt P41145). Description: Activity at the kappa opioid receptor. The following applies: previously shown. The text has this: The compound of Formula (I) is believed to have binding affinity at the GABA-gated Cl-channel, the kappa opioid receptor, the 5-HT2A receptor, and the androgen receptor. The compound of Formula (I) has previously shown activity at all 18 GABAA receptor channels and the kappa opioid receptor. The compound of Formula (I) had previously shown no activity at the 5-HT2A receptor. Activity at the androgen receptor is has not yet been well studied.

Data set [6] can be described thus: 60 mg once daily for seven days, pharmacokinetics in humans (MAD). The following applies: human.

Molecules are shown by their SMILES.

Chain of kappa opioid receptor (P41145 whole entry): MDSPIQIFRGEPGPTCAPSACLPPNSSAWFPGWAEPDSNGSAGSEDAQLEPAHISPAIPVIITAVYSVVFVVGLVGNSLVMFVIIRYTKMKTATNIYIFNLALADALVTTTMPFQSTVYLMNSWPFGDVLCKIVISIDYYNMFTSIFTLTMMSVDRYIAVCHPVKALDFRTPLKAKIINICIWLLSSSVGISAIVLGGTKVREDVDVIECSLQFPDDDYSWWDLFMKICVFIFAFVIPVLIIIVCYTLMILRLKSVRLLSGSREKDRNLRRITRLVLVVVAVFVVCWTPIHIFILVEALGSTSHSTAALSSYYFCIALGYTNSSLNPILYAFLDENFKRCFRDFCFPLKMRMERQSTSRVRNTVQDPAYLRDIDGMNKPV

Turning to `C[C@@]1(O)CC[C@@]2(C)[C@@H](CC[C@@H]3[C@@H]2CC[C@]2(C)[C@@H](C(=O)Cn4cc(C#N)cn4)CC[C@@H]32)C1` [CV-10155, 1-[2-[(3R,5S,8R,9S,10S,13S,14S,17S)-3-hydroxy-3,10,13-trimethyl-1,2,4,5,6,7,8,9,11,12,14,15,16,17-tetradecahydrocyclopenta[a]phenanthren-17-yl]-2-oxoethyl]pyrazole-4-carbonitrile], the “dose from which robust efficacy was observed” value in data set [1] (in most models) was not below 3 mg/kg. Moreover, in data set [1] (preclinical models of depression, anxiety, seizure), the “minimal effective dose (MED)” value was 1 mg/kg. The “dose producing an increase in non-REM sleep” value in data set [2] (doses 1, 3, 6, 10 mg/kg) is not below 3 mg/kg. Moreover, in data set [2] (within well-tolerated and efficacious dose ranges), the target engagement entry is recorded as “dose-dependent target engagement”. Further, the “DDI inhibitory effect at CYP2C8 level” value in data set [3] was “no or minimal DDI inhibitory effect”. Moreover, the “primary effects observed in repeat-dose toxicity” value in data set [4] (mid and high dose levels, species not specified (rats and dogs program)) is “ataxia and prostration”. The compound further showed a no-observed-adverse-effect-level dose in data set [4] (rats, 28-day repeat dose) of 7.5 mg/kg/day. Further, the “activity at the kappa opioid receptor” value in data set [5] is reported as “activity”. Besides, the “ratio of Cmax/trough on day 7” value in data set [6] (60 mg daily in the evening in a fed state) is on record as 3.47. In data set [6] (60 mg daily in the morning in a fasted state), the “ratio of Cmax/trough on day 7” value came out at 6.09. The “difference in absorption, morning fasted vs evening fed” value in data set [6] (60 mg oral once per day for seven days) is recorded as “no significant difference”. For the same compound, the “Ratio (Cmax/Cmin)” value in data set [6] (60 mg, day 7 MAD, morning dosing) is reported as 6.07. In data set [6] (plasma, oral, 60 mg), this compound displayed an AUC0-inf of 2900 ng·h/mL and a concentration at 7 day of 41.5 ng/mL.

(Values after US20230372364A1, “METHOD OF TREATING GABA MEDIATED DISORDERS” (Eliem Therapeutics (UK) Ltd, priority 2020, published 2023).)
